Measured values: ChEMBL document CHEMBL5143545, “Indolylarylsulfones bearing phenylboronic acid and phenylboronate ester functionalities as potent HIV‑1 non-nucleoside reverse transcriptase inhibitors” (Bioorg Med Chem, 2022)
≈ marks a conversion by molar mass, not a printed value.

Key:
[1] = test system: Human immunodeficiency virus 1; type: functional, organism-based; conditions: Human immunodeficiency virus 1, MT4
[2] = test system: Human immunodeficiency virus 1; experiment: Antiviral activity against HIV1 with RT K103N mutant infected in human MT4 cells assessed as protection against viral-induced cytopathogenecity by MTT assay; type: functional, organism-based; conditions: Human immunodeficiency virus 1, MT4
[3] = test system: Human immunodeficiency virus 1; type: functional, organism-based; conditions: Human immunodeficiency virus 1, MT4; remark: listed apart in the source
[4] = test system: Human immunodeficiency virus 1; experiment: Antiviral activity against HIV1 with RT RES056 mutant infected in human MT4 cells assessed as protection against viral-induced cytopathogenecity by MTT assay; type: functional, organism-based; conditions: Human immunodeficiency virus 1, MT4
[5] = test system: Human immunodeficiency virus 1; experiment: Antiviral activity against HIV1 with RT E138K mutant infected in human MT4 cells assessed as protection against viral-induced cytopathogenecity by MTT assay; type: functional, organism-based; conditions: Human immunodeficiency virus 1, MT4
[6] = Toxicity in mock-infected human MT4 cells assessed as reduction in cell viability by MTT assay; type: cell-based
[7] = test system: Human immunodeficiency virus 1; experiment: microbe, parasite or virus in culture; conditions: Human immunodeficiency virus 1, 3B, MT4
Description: Antiviral activity against HIV1 3B infected in human MT4 cells assessed as protection against viral-induced cytopathogenecity by MTT assay

[8] = test system: Human immunodeficiency virus 1; experiment: Antiviral activity against HIV1 with RT L100I mutant infected in human MT4 cells assessed as protection against viral-induced cytopathogenecity by MTT assay; type: functional, organism-based; conditions: Human immunodeficiency virus 1, MT4
[9] = in vitro; conditions: human, MT4 cells, mock-infected (CC50) and HIV1 3B infected (EC50)
Description: Selectivity index, ratio of CC50 for toxicity in mock-infected human MT4 cells assessed as reduction in cell viability by MTT assay to EC50 for antiviral activity against HIV1 3B infected in human MT4 cells assessed as protection against viral-induced cytopathogenecity by MTT assay

[10] = test system: Human immunodeficiency virus 1; type: functional, organism-based; conditions: Human immunodeficiency virus 1, MT4; remark: listed apart in the source
[11] = Solubility in water at pH 2; type: physicochemical
[12] = Solubility in water at pH 7; type: physicochemical
[13] = biological target: Human immunodeficiency virus type 1 reverse transcriptase (Human immunodeficiency virus 1, UniProt Q72547); experiment: Inhibition of HIV1 reverse transcriptase assessed as inhibition of biotin-dUTP incorporation
[14] = Solubility in water at pH 7.4; type: physicochemical

Cc1cc(C)cc(S(=O)(=O)c2c(C(=O)NCCCNC(=O)c3ccc(B(O)O)cc3)[nH]c3ccc(Cl)cc23)c1
EC50 [1]: 2.23 µM
EC50 [2]: 0.033 µM
EC50 [3]: 0.19 µM
EC50 [4]: 4.91 µM
EC50 [5]: 0.0342 µM
CC50 [6]: 24.7 µM
EC50 [7]: 0.0111 µM
EC50 [8]: 0.021 µM
selectivity ratio [9]: 2240
EC50 [10]: 0.118 µM

Cc1cc(C)cc(S(=O)(=O)c2c(C(=O)Nc3ccc(B(O)O)cc3)[nH]c3ccc(Cl)cc23)c1
EC50 [1]: > 1.62 µM
EC50 [2]: 0.041 µM
EC50 [3]: 0.215 µM
EC50 [4]: > 856 µM
EC50 [5]: 0.0398 µM
CC50 [6]: 8.55 µM
EC50 [7]: 0.012 µM
EC50 [8]: 0.037 µM
selectivity ratio [9]: 712
EC50 [10]: 0.0795 µM

Cc1cc(C)cc(S(=O)(=O)c2c(C(=O)NCCCNC(=O)c3cccc(B(O)O)c3)[nH]c3ccc(Cl)cc23)c1
EC50 [1]: 1.82 µM
EC50 [2]: 0.13 µM
EC50 [3]: 0.27 µM
EC50 [4]: 5.4 µM
EC50 [5]: 0.0844 µM
CC50 [6]: 24.2 µM
EC50 [7]: 0.0354 µM
EC50 [8]: 0.11 µM
selectivity ratio [9]: 684
EC50 [10]: 0.22 µM

Cc1cc(C)cc(S(=O)(=O)c2c(C(=O)NC3CCN(Cc4ccc(B(O)O)cc4)CC3)[nH]c3ccc(Cl)cc23)c1
EC50 [1]: > 19.3 µM
EC50 [2]: 0.31 µM
EC50 [3]: 1.07 µM
EC50 [4]: > 19.3 µM
EC50 [5]: 0.646 µM
CC50 [6]: 19.3 µM
EC50 [7]: 0.0314 µM
EC50 [8]: 0.11 µM
selectivity ratio [9]: 615
EC50 [10]: 1.31 µM

Cc1cc(C)cc(S(=O)(=O)c2c(C(=O)NCc3ccc(B4OC(C)(C)C(C)(C)O4)cc3)[nH]c3ccc(Cl)cc23)c1
EC50 [1]: 2.59 µM
EC50 [2]: 0.035 µM
EC50 [3]: 0.0699 µM
EC50 [4]: 4.04 µM
EC50 [5]: 0.045 µM
solubility [11]: 73 µg/mL (≈ 126 µM)
CC50 [6]: 23.9 µM
EC50 [7]: 0.0067 µM
solubility [12]: 35.8 µg/mL (≈ 61.8 µM)
EC50 [8]: 0.014 µM
IC50 [13]: 0.119 µM
solubility [14]: 37.7 µg/mL (≈ 65.1 µM)
selectivity ratio [9]: 3550
EC50 [10]: 0.091 µM

Cc1cc(C)cc(S(=O)(=O)c2c(C(=O)NCc3cccc(B(O)O)c3)[nH]c3ccc(Cl)cc23)c1
EC50 [1]: 0.89 µM
EC50 [2]: 0.0092 µM
EC50 [3]: 0.06 µM
EC50 [4]: 1.51 µM
EC50 [5]: 0.0503 µM
solubility [11]: 64 µg/mL (≈ 129 µM)
CC50 [6]: 28 µM
EC50 [7]: 0.0085 µM
solubility [12]: 70 µg/mL (≈ 141 µM)
EC50 [8]: 0.0073 µM
IC50 [13]: 0.123 µM
solubility [14]: 94.5 µg/mL (≈ 190 µM)
selectivity ratio [9]: 3310
EC50 [10]: 0.021 µM

Cc1cc(C)cc(S(=O)(=O)c2c(C(=O)NCCNC(=O)c3cccc(B(O)O)c3)[nH]c3ccc(Cl)cc23)c1
EC50 [1]: 8.1 µM
EC50 [2]: 0.57 µM
EC50 [3]: 1.34 µM
EC50 [4]: > 21.1 µM
EC50 [5]: 0.243 µM
CC50 [6]: 21.1 µM
EC50 [7]: 0.0408 µM
EC50 [8]: 0.26 µM
selectivity ratio [9]: 517
EC50 [10]: 0.98 µM

Cc1cc(C)cc(S(=O)(=O)c2c(C(=O)Nc3ccc4c(c3)B(O)OC4)[nH]c3ccc(Cl)cc23)c1
EC50 [1]: > 1.96 µM
EC50 [2]: 0.11 µM
EC50 [3]: 0.47 µM
EC50 [4]: > 8.41 µM
EC50 [5]: 0.0649 µM
CC50 [6]: 8.42 µM
EC50 [7]: 0.0184 µM
EC50 [8]: 0.096 µM
selectivity ratio [9]: 457
EC50 [10]: 0.19 µM

Cc1cc(C)cc(S(=O)(=O)c2c(C(=O)NCCNC(=O)c3ccc(B(O)O)cc3)[nH]c3ccc(Cl)cc23)c1
EC50 [1]: 6.76 µM
EC50 [2]: 0.26 µM
EC50 [3]: 0.91 µM
EC50 [4]: > 24.3 µM
EC50 [5]: 0.162 µM
CC50 [6]: 24.4 µM
EC50 [7]: 0.0198 µM
EC50 [8]: 0.23 µM
selectivity ratio [9]: 1230
EC50 [10]: 0.7 µM

Cc1cc(C)cc(S(=O)(=O)c2c(C(=O)Nc3cccc(B(O)O)c3)[nH]c3ccc(Cl)cc23)c1
EC50 [1]: > 5.3 µM
EC50 [2]: 0.1 µM
EC50 [3]: 0.85 µM
EC50 [4]: > 5.3 µM
EC50 [5]: 0.0676 µM
CC50 [6]: 5.31 µM
EC50 [7]: 0.0189 µM
EC50 [8]: 0.0875 µM
selectivity ratio [9]: 282
EC50 [10]: 0.2 µM

Cc1cc(C)cc(S(=O)(=O)c2c(C(=O)NC3CCN(Cc4cccc(B(O)O)c4)CC3)[nH]c3ccc(Cl)cc23)c1
EC50 [1]: > 6.43 µM
EC50 [2]: 0.51 µM
EC50 [3]: 1.19 µM
EC50 [4]: > 6.43 µM
EC50 [5]: 0.717 µM
CC50 [6]: 6.43 µM
EC50 [7]: 0.0426 µM
EC50 [8]: 0.28 µM
selectivity ratio [9]: 151
EC50 [10]: > 1.19 µM

Cc1cc(C)cc(S(=O)(=O)c2c(C(=O)NCc3ccc(B(O)O)cc3)[nH]c3ccc(Cl)cc23)c1
EC50 [1]: 3.86 µM
EC50 [2]: 0.032 µM
EC50 [3]: 0.12 µM
EC50 [4]: 4.64 µM
EC50 [5]: 0.0537 µM
CC50 [6]: 27.7 µM
EC50 [7]: 0.0088 µM
EC50 [8]: 0.0094 µM
selectivity ratio [9]: 3140
EC50 [10]: 0.115 µM

Cc1cc(C)cc(S(=O)(=O)c2c(C(N)=O)[nH]c3ccc(Cl)cc23)c1
EC50 [1]: 1.17 µM
EC50 [2]: 0.02 µM
EC50 [3]: 0.03 µM
EC50 [4]: > 7.08 µM
EC50 [5]: 0.01 µM
solubility [11]: 71.2 µg/mL (≈ 196 µM)
CC50 [6]: 7.08 µM
EC50 [7]: 0.0028 µM
solubility [12]: 58.3 µg/mL (≈ 161 µM)
EC50 [8]: 0.01 µM
IC50 [13]: 0.0048 µM
solubility [14]: 29 µg/mL (≈ 79.9 µM)
selectivity ratio [9]: 2570
EC50 [10]: 0.08 µM

O=C1Nc2ccc(Cl)cc2[C@@](C#CC2CC2)(C(F)(F)F)O1 [EFAVIRENZ]
EC50 [1]: 0.21 µM
EC50 [3]: 0.0063 µM
EC50 [4]: 0.33 µM
EC50 [5]: 0.0066 µM
CC50 [6]: > 6.34 µM

Cc1cc(C#N)cc(C)c1Oc1nc(Nc2ccc(C#N)cc2)nc(N)c1Br [ETRAVIRINE]
EC50 [4]: 0.066 µM
EC50 [5]: 0.019 µM
solubility [11]: < 3 µg/mL
CC50 [6]: > 4.59 µM
EC50 [7]: 0.0029 µM
solubility [12]: < 2 µg/mL
EC50 [8]: 0.0076 µM
solubility [14]: < 1 µg/mL
EC50 [10]: 0.02 µM

Nc1ccn([C@@H]2CS[C@H](CO)O2)c(=O)n1 [LAMIVUDINE]
EC50 [1]: 4.56 µM
EC50 [2]: 2.79 µM
EC50 [3]: 3.4 µM
EC50 [4]: 5.06 µM
EC50 [5]: 8.27 µM
CC50 [6]: > 87.2 µM
EC50 [7]: 5.23 µM
EC50 [8]: 1.15 µM
selectivity ratio [9]: > 309
EC50 [10]: 2.17 µM

Cc1ccnc2c1NC(=O)c1cccnc1N2C1CC1 [NEVIRAPINE]
EC50 [1]: > 1500 µM
EC50 [3]: 11 µM
EC50 [4]: > 1500 µM
CC50 [6]: > 15 µM
EC50 [7]: 0.16 µM
EC50 [10]: > 1500 µM

Cc1cn([C@H]2C[C@H](N=[N+]=[N-])[C@@H](CO)O2)c(=O)[nH]c1=O [ZIDOVUDINE]
EC50 [1]: 0.012 µM
EC50 [2]: 0.022 µM
EC50 [3]: 0.015 µM
EC50 [5]: 0.0347 µM
CC50 [6]: > 7.48 µM
EC50 [7]: 0.0212 µM
EC50 [8]: 0.0093 µM
selectivity ratio [9]: > 352
EC50 [10]: 0.0097 µM
